Assay results from article PMC5218480 (PLoS ONE, 2017).

Test system: MV-4-11 cells
Test: Gene expression microarray analysis (Affymetrix PrimeView) and GSEA
Assay type: cell-based, human
Set-up: RFU PODN (11730768_x_at) / Fold change /veh PODN (11730768_x_at) / RFU LINC00158 (11744669_a_at) / Fold change /veh LINC00158 (11744669_a_at) / RFU DUSP10 (11751237_a_at) / Fold change /veh DUSP10 (11751237_a_at) / RFU ID3 (11757404_x_at) / Fold change /veh ID3 (11757404_x_at) / RFU PLEKHG5 (11737974_s_at) / Fold change /veh PLEKHG5 (11737974_s_at) / RFU LRRC4B (11730491_at) / Fold change /veh LRRC4B (11730491_at) / RFU GIMAP4 (11747438_a_at) / Fold change /veh GIMAP4 (11747438_a_at) / RFU KRT8 (11758183_x_at) / Fold change /veh KRT8 (11758183_x_at) / RFU CNN1 (11734310_a_at) / Fold change /veh CNN1 (11734310_a_at) / RFU VPS37D (11726825_at) / Fold change /veh VPS37D (11726825_at) / RFU C10orf10 (11716522_x_at) / Fold change /veh C10orf10 (11716522_x_at) / RFU KIR2DL2 /// KIR2DL4 /// KIR2DL5A /// KIR2DL5B /// KIR2DS1 /// KIR2DS2 /// KIR2DS3 /// KIR2DS4 /// KIR3DL3 /// KIR3DL3 /// KIR3DS1 (11738374_at) / Fold change /veh KIR2DL2 /// KIR2DL4 /// KIR2DL5A /// KIR2DL5B /// KIR2DS1 /// KIR2DS2 /// KIR2DS3 /// KIR2DS4 /// KIR3DL3 /// KIR3DL3 /// KIR3DS1 (11738374_at) / RFU C1QL1 (11718748_at) / Fold change /veh C1QL1 (11718748_at) / RFU TMPRSS4 (11747572_a_at) / Fold change /veh TMPRSS4 (11747572_a_at) / RFU HAMP (11756126_x_at) / Fold change /veh HAMP (11756126_x_at) / RFU RNFT2 (11725882_a_at) / Fold change /veh RNFT2 (11725882_a_at) / RFU NR4A2 (11747474_a_at) / Fold change /veh NR4A2 (11747474_a_at) / RFU ABCC12 (11746883_a_at) / Fold change /veh ABCC12 (11746883_a_at) / RFU TMEM136 (11760407_x_at) / Fold change /veh TMEM136 (11760407_x_at) / RFU CLDN22 /// WWC2 (11732394_at) / Fold change /veh CLDN22 /// WWC2 (11732394_at) / RFU HLA-DPB1 (11760878_x_at) / Fold change /veh HLA-DPB1 (11760878_x_at) / RFU SPINT1 (11716480_a_at) / Fold change /veh SPINT1 (11716480_a_at) / RFU GAP43 (11754022_s_at) / Fold change /veh GAP43 (11754022_s_at) / RFU A4GNT (11735810_at) / Fold change /veh A4GNT (11735810_at) / RFU PRB3 (11715151_x_at) / Fold change /veh PRB3 (11715151_x_at) / RFU TUBB4B (11761932_at) / Fold change /veh TUBB4B (11761932_at) / RFU CAPN14 (11732068_a_at) / Fold change /veh CAPN14 (11732068_a_at) / RFU TMCC2 (11721928_a_at) / Fold change /veh TMCC2 (11721928_a_at) / RFU IRGQ (11745062_a_at) / Fold change /veh IRGQ (11745062_a_at) / RFU FAM174B (11720279_a_at) / Fold change /veh FAM174B (11720279_a_at) / RFU TMPRSS4 (11748680_a_at) / Fold change /veh TMPRSS4 (11748680_a_at) / RFU FAM212B (11763350_a_at) / Fold change /veh FAM212B (11763350_a_at) / RFU PLEKHG5 (11743358_a_at) / Fold change /veh PLEKHG5 (11743358_a_at) / RFU ZSCAN30 (11745921_a_at) / Fold change /veh ZSCAN30 (11745921_a_at) / RFU CMKLR1 (11741424_a_at) / Fold change /veh CMKLR1 (11741424_a_at) / RFU LOC101060620 /// MAPK8IP1 (11723275_at) / Fold change /veh LOC101060620 /// MAPK8IP1 (11723275_at) / RFU SPTSSB (11747773_x_at) / Fold change /veh SPTSSB (11747773_x_at) / RFU PRSS12 (11739890_at) / Fold change /veh PRSS12 (11739890_at) / RFU BIN1 (11741810_x_at) / Fold change /veh BIN1 (11741810_x_at) / RFU WNT11 (11732464_a_at) / Fold change /veh WNT11 (11732464_a_at) / RFU C10orf10 (11716521_a_at) / Fold change /veh C10orf10 (11716521_a_at) / RFU C5orf56 (11738089_at) / Fold change /veh C5orf56 (11738089_at) / RFU CYB561 (11721691_x_at) / Fold change /veh CYB561 (11721691_x_at) / RFU ANKRD19P (11752326_a_at) / Fold change /veh ANKRD19P (11752326_a_at) / RFU OR2T12 /// OR2T33 /// OR2T8 (11738714_s_at) / Fold change /veh OR2T12 /// OR2T33 /// OR2T8 (11738714_s_at) / RFU VCAN (11748164_a_at) / Fold change /veh VCAN (11748164_a_at) / RFU JSRP1 (11732532_at) / Fold change /veh JSRP1 (11732532_at) / RFU KRTAP10-11 (11738290_x_at) / Fold change /veh KRTAP10-11 (11738290_x_at) / RFU MYO3A (11730013_a_at) / Fold change /veh MYO3A (11730013_a_at) / RFU EBF3 (11725865_a_at) / Fold change /veh EBF3 (11725865_a_at) / RFU CAMK2N1 (11719241_x_at) / Fold change /veh CAMK2N1 (11719241_x_at) / RFU C5orf56 (11738088_a_at) / Fold change /veh C5orf56 (11738088_a_at) / RFU OLFML3 (11715873_a_at) / Fold change /veh OLFML3 (11715873_a_at) / RFU LOC100653217 /// NTM (11731650_a_at) / Fold change /veh LOC100653217 /// NTM (11731650_a_at) / RFU MAPK11 (11762145_a_at) / Fold change /veh MAPK11 (11762145_a_at) / RFU FIZ1 (11724087_x_at) / Fold change /veh FIZ1 (11724087_x_at) / RFU OASL (11726364_x_at) / Fold change /veh OASL (11726364_x_at) / RFU SOX15 (11748057_x_at) / Fold change /veh SOX15 (11748057_x_at) / RFU CD79A (11719716_a_at) / Fold change /veh CD79A (11719716_a_at) / RFU HIST1H1D (11736915_at) / Fold change /veh HIST1H1D (11736915_at) / RFU CASKIN2 (11723855_a_at) / Fold change /veh CASKIN2 (11723855_a_at) / RFU LOC730098 (11760151_x_at) / Fold change /veh LOC730098 (11760151_x_at) / RFU OR4N2 (11742367_at) / Fold change /veh OR4N2 (11742367_at) / RFU PRRT2 (11749266_a_at) / Fold change /veh PRRT2 (11749266_a_at) / RFU SNX32 (11753110_a_at) / Fold change /veh SNX32 (11753110_a_at) / RFU CDHR5 (11726645_a_at) / Fold change /veh CDHR5 (11726645_a_at) / RFU RCAN1 (11760418_a_at) / Fold change /veh RCAN1 (11760418_a_at) / RFU FAM167A (11723789_a_at) / Fold change /veh FAM167A (11723789_a_at) / RFU FAM26E (11764081_at) / Fold change /veh FAM26E (11764081_at) / RFU ISYNA1 (11749810_s_at) / Fold change /veh ISYNA1 (11749810_s_at) / RFU ACY1 (11761880_at) / Fold change /veh ACY1 (11761880_at) / RFU 11764098_at / Fold change /veh 11764098_at / RFU SAMD14 (11745864_x_at) / Fold change /veh SAMD14 (11745864_x_at) / RFU NPB (11741838_a_at) / Fold change /veh NPB (11741838_a_at) / RFU TMPRSS6 (11731388_a_at) / Fold change /veh TMPRSS6 (11731388_a_at) / RFU KRTAP10-2 (11738614_at) / Fold change /veh KRTAP10-2 (11738614_at) / RFU ARHGAP8 /// PRR5-ARHGAP8 (11727945_x_at) / Fold change /veh ARHGAP8 /// PRR5-ARHGAP8 (11727945_x_at) / RFU KRTAP5-7 /// NADSYN1 (11734609_at) / Fold change /veh KRTAP5-7 /// NADSYN1 (11734609_at) / RFU RASL12 (11751679_a_at) / Fold change /veh RASL12 (11751679_a_at) / RFU CDKN2B (11736163_a_at) / Fold change /veh CDKN2B (11736163_a_at) / RFU PRF1 (11729649_at) / Fold change /veh PRF1 (11729649_at) / RFU, ZNF638 /// ZNF638-IT1 / Fold change vs veh, ZNF638 /// ZNF638-IT1 / RFU, PANK3 / Fold change vs veh, PANK3 / RFU, SH3YL1 / Fold change vs veh, SH3YL1 / RFU, ZEB2 / Fold change vs veh, ZEB2 / RFU, NRIP1 / Fold change vs veh, NRIP1 / RFU, PTTG1IP / Fold change vs veh, PTTG1IP / RFU, CAPN2 / Fold change vs veh, CAPN2 / RFU, MED14 / Fold change vs veh, MED14 / RFU, SNORA58 / Fold change vs veh, SNORA58 / RFU, C1orf63 / Fold change vs veh, C1orf63 / RFU, LRRFIP1 / Fold change vs veh, LRRFIP1 / RFU, NDUFAF7 / Fold change vs veh, NDUFAF7 / RFU, SLC12A2 / Fold change vs veh, SLC12A2 / RFU, IBTK / Fold change vs veh, IBTK / RFU, ESF1 / Fold change vs veh, ESF1 / Fold change vs veh, TMEM50B / RFU, TAOK1 / Fold change vs veh, TAOK1 / RFU, ACBD3 / Fold change vs veh, ACBD3 / RFU, TMA16 / Fold change vs veh, TMA16 / RFU, RWDD3 / Fold change vs veh, RWDD3 / RFU, BCAT1 / Fold change vs veh, BCAT1 / RFU, EDEM3 / Fold change vs veh, EDEM3 / RFU, TMEM33 / Fold change vs veh, TMEM33 / RFU, WDR75 / Fold change vs veh, WDR75 / RFU, AHCTF1 / Fold change vs veh, AHCTF1 / RFU, TFRC / Fold change vs veh, TFRC / RFU, ZDHHC17 / Fold change vs veh, ZDHHC17 / RFU, NOM1 / Fold change vs veh, NOM1 / RFU, ARL8B / Fold change vs veh, ARL8B / RFU, ZBTB11 / Fold change vs veh, ZBTB11 / RFU, TAMM41 / Fold change vs veh, TAMM41 / RFU, KIAA1704 /// LOC100996395 / Fold change vs veh, KIAA1704 /// LOC100996395 / RFU, ING1 / Fold change vs veh, ING1 / RFU, TRMT61B / Fold change vs veh, TRMT61B / RFU, FUBP3 / Fold change vs veh, FUBP3 / RFU, TP53 / Fold change vs veh, TP53 / RFU, TNKS2 / Fold change vs veh, TNKS2 / RFU, ZFP14 / Fold change vs veh, ZFP14 / RFU, ACTR2 / Fold change vs veh, ACTR2 / RFU, PPP3R1 / Fold change vs veh, PPP3R1 / RFU, PIK3R1 / Fold change vs veh, PIK3R1 / RFU, HNRNPA1 / Fold change vs veh, HNRNPA1 / RFU, RNF170 / Fold change vs veh, RNF170 / RFU, ZNF28 / Fold change vs veh, ZNF28 / RFU, RNGTT / Fold change vs veh, RNGTT / RFU, OGT / Fold change vs veh, OGT / RFU, BRD1 / Fold change vs veh, BRD1 / RFU, MARS / Fold change vs veh, MARS / RFU, ZNF655 / Fold change vs veh, ZNF655 / RFU, FAHD1 / Fold change vs veh, FAHD1 / RFU, BDP1 / Fold change vs veh, BDP1 / RFU, LRRCC1 / Fold change vs veh, LRRCC1 / RFU, ARID1A / Fold change vs veh, ARID1A / RFU, ZNF146 / Fold change vs veh, ZNF146 / RFU, ZNF330 / Fold change vs veh, ZNF330 / RFU, GPN3 / Fold change vs veh, GPN3 / RFU, C9orf123 / Fold change vs veh, C9orf123 / RFU, N4BP2L2 / Fold change vs veh, N4BP2L2 / RFU, ARFIP1 / Fold change vs veh, ARFIP1 / RFU, FAM179B / Fold change vs veh, FAM179B / RFU, BCL10 / Fold change vs veh, BCL10 / RFU, UHRF1BP1L / Fold change vs veh, UHRF1BP1L / RFU, BET1 / Fold change vs veh, BET1 / RFU, CNOT2 / Fold change vs veh, CNOT2 / RFU, ZNF268 / Fold change vs veh, ZNF268 / Fold change vs veh, ZNF507 / RFU, DGCR2 / Fold change vs veh, DGCR2 / RFU, WDSUB1 / Fold change vs veh, WDSUB1 / Fold change vs veh, HSP90B1 /// MIR3652 / RFU, ADSS / Fold change vs veh, ADSS / RFU, GK / Fold change vs veh, GK / RFU, ZNF148 / Fold change vs veh, ZNF148 / RFU, TAF9 / Fold change vs veh, TAF9 / RFU, SLC1A5 / Fold change vs veh, SLC1A5 / RFU, SLMO2 / Fold change vs veh, SLMO2 / RFU, ABCC4 / Fold change vs veh, ABCC4 / RFU, LOC101060439 /// RAP1B / Fold change vs veh, LOC101060439 /// RAP1B / RFU, RFX7 / Fold change vs veh, RFX7 / RFU, GTPBP10 / Fold change vs veh, GTPBP10 / RFU, CNEP1R1 / Fold change vs veh, CNEP1R1 / RFU, BIVM-ERCC5 /// ERCC5 / Fold change vs veh, BIVM-ERCC5 /// ERCC5 / RFU, ILF3 / Fold change vs veh, ILF3 / RFU 11762660_at / Fold change /veh 11762660_at / RFU VCAN (11757783_s_at) / Fold change /veh VCAN (11757783_s_at) / RFU DDX43 (11728927_at) / Fold change /veh DDX43 (11728927_at) / RFU KRT8 (11758188_x_at) / Fold change /veh KRT8 (11758188_x_at) / RFU NKD1 (11759106_at) / Fold change /veh NKD1 (11759106_at) / RFU SRD5A1 (11742802_a_at) / Fold change /veh SRD5A1 (11742802_a_at) / RFU TPSAB1 /// TPSB2 (11721975_s_at) / Fold change /veh TPSAB1 /// TPSB2 (11721975_s_at) / RFU GSTM3 (11746129_a_at) / Fold change /veh GSTM3 (11746129_a_at) / RFU IL23R (11737362_x_at) / Fold change /veh IL23R (11737362_x_at) / RFU TMEM51 (11727254_a_at) / Fold change /veh TMEM51 (11727254_a_at) / RFU PIWIL2 (11732686_x_at) / Fold change /veh PIWIL2 (11732686_x_at) / RFU ORM1 (11744905_x_at) / Fold change /veh ORM1 (11744905_x_at) / RFU CCDC152 (11743942_at) / Fold change /veh CCDC152 (11743942_at) / RFU ECM1 (11717891_a_at) / Fold change /veh ECM1 (11717891_a_at) / RFU IL23R (11748794_a_at) / Fold change /veh IL23R (11748794_a_at) / RFU TNFAIP8L3 (11732012_x_at) / Fold change /veh TNFAIP8L3 (11732012_x_at) / RFU MBOAT4 (11741988_at) / Fold change /veh MBOAT4 (11741988_at) / RFU 11764193_at / Fold change /veh 11764193_at / RFU TMEM53 (11763286_at) / Fold change /veh TMEM53 (11763286_at) / RFU MAGEB2 (11727129_at) / Fold change /veh MAGEB2 (11727129_at) / RFU TMEM200A (11744735_a_at) / Fold change /veh TMEM200A (11744735_a_at) / RFU CCDC152 (11751479_a_at) / Fold change /veh CCDC152 (11751479_a_at) / RFU FAM211A (11726209_a_at) / Fold change /veh FAM211A (11726209_a_at) / RFU RGS16 (11746705_a_at) / Fold change /veh RGS16 (11746705_a_at) / RFU VCAN (11755009_s_at) / Fold change /veh VCAN (11755009_s_at) / RFU RHOB (11743442_s_at) / Fold change /veh RHOB (11743442_s_at) / RFU RGS16 (11720943_a_at) / Fold change /veh RGS16 (11720943_a_at) / RFU RGS16 (11720944_at) / Fold change /veh RGS16 (11720944_at) / RFU, VPS4B / Fold change vs veh, VPS4B / RFU, CREB1 / Fold change vs veh, CREB1 / RFU, DNAJC13 / Fold change vs veh, DNAJC13 / RFU, GNAQ / Fold change vs veh, GNAQ / RFU, CDK5R1 / Fold change vs veh, CDK5R1 / RFU, ZRANB3 / Fold change vs veh, ZRANB3 / RFU, CUL4A / Fold change vs veh, CUL4A / RFU, CCNY / Fold change vs veh, CCNY / RFU, UFL1 / Fold change vs veh, UFL1 / RFU, COG3 / Fold change vs veh, COG3 / RFU, DIAPH2 / Fold change vs veh, DIAPH2 / RFU, SKA2 / Fold change vs veh, SKA2 / RFU, AFF3 / Fold change vs veh, AFF3 / RFU, LMF1 / Fold change vs veh, LMF1 / RFU, IPO11 / Fold change vs veh, IPO11 / RFU, DFFB / Fold change vs veh, DFFB / RFU, FOXP1 / Fold change vs veh, FOXP1 / RFU, CARD8 / Fold change vs veh, CARD8 / RFU, STRN3 / Fold change vs veh, STRN3 / RFU, ADK / Fold change vs veh, ADK / RFU, RASSF2 / Fold change vs veh, RASSF2 / RFU, WIPF1 / Fold change vs veh, WIPF1 / RFU, LARP1B / Fold change vs veh, LARP1B / RFU, RASA1 / Fold change vs veh, RASA1 / RFU, RB1 / Fold change vs veh, RB1 / RFU, PPFIA1 / Fold change vs veh, PPFIA1 / RFU, MAT2A / Fold change vs veh, MAT2A / RFU, CCT5 / Fold change vs veh, CCT5 / RFU, WDR92 / Fold change vs veh, WDR92 / RFU, CUX1 / Fold change vs veh, CUX1 / RFU, TTC7A / Fold change vs veh, TTC7A / RFU, TMEM135 / Fold change vs veh, TMEM135 / RFU, DEPTOR / Fold change vs veh, DEPTOR / RFU, CPM / Fold change vs veh, CPM / RFU, DNAJB6 / Fold change vs veh, DNAJB6 / RFU, CACNA2D3 / Fold change vs veh, CACNA2D3 / RFU, DTX4 / Fold change vs veh, DTX4 / RFU, TFCP2 / Fold change vs veh, TFCP2 / RFU, GMCL1 /// GMCL1P1 / Fold change vs veh, GMCL1 /// GMCL1P1 / RFU, AEBP2 / Fold change vs veh, AEBP2 / RFU, SNHG1 /// SNORD22 /// SNORD25 /// SNORD26 /// SNORD27 /// SNORD28 /// SNORD29 /// SNORD31 / Fold change vs veh, SNHG1 /// SNORD22 /// SNORD25 /// SNORD26 /// SNORD27 /// SNORD28 /// SNORD29 /// SNORD31 / Fold change (Aza/veh), C12orf56 (ProbeSet 11735607_a_at) / Fold change (ACY-1035/veh), C12orf56 (ProbeSet 11735607_a_at) / Fold change (Aza/veh), FGFR1OP (ProbeSet 11751329_s_at) / Fold change (ACY-1035/veh), FGFR1OP (ProbeSet 11751329_s_at) / Fold change (Aza/veh), VPS36 (ProbeSet 11739960_a_at) / Fold change (ACY-1035/veh), VPS36 (ProbeSet 11739960_a_at) / RFU SYPL1 (11715823_x_at) / Fold change /veh SYPL1 (11715823_x_at) / RFU IGFBP7 (11715501_s_at) / Fold change /veh IGFBP7 (11715501_s_at) / RFU REEP3 (11722064_at) / Fold change /veh REEP3 (11722064_at) / RFU IGLL1 (11728026_x_at) / Fold change /veh IGLL1 (11728026_x_at): dose or concentration left out as unconfirmed
Details: MV-4-11 cells, 48 hours

## Nc1ncn([C@@H]2O[C@H](CO)[C@@H](O)[C@H]2O)c(=O)n1 [azacitidine]
  Fold change /veh FAM167A (11723789_a_at): 1.19
